Results taken from US11352405B2, “GLP-1/glucagon receptor agonists in the treatment of fatty liver disease and steatohepatitis” (SANOFI, priority 2017, dated 2022).
Starred links: 1 amine or outer side, 2 acyl side, 3 side chain; linkers in the order of their positions; H or OH if unused. Non-standard residues stand in square brackets, D forms with d. Groups on a side chain read outwards from the residue. No end group written: not given here. Stea = stearoyl, (S)-4-carboxy-4-octadecanoylamino-butyryl on Lys via γGlu; γGlu = O=C(O)[C@H](CCC(=O)[*:2])N[*:1]

Tests used:
[1] = tested on: mice with AMLN-diet-induced NASH; experiment: murine diet-induced NASH model (AMLN diet), eight-week treatment; assay type: in vivo, C57BL/6J mice
Description: Test compounds were investigated in a mouse model of NASH (murine diet-induced NASH model) as described in Kristiansen et al (World Journal of Hepatology 2016, vol. 8, pp. 673-684). C57BL/6J mice were given ad libitum access to a diet (D09100301, Research Diet, United States) high in fat (40%, of these 18% trans-fat), carbohydrates (40%, of these 20% fructose) and cholesterol (2%) that has previously been described as AMLN diet ([…] et al., Am J Physiol Gastrointest Liver Physiol 2013, vol. 305, pp. G483-G495). A control group was kept on regular rodent chow (Altromin 1324, Brogaarden, Denmark). After 26 weeks on the diet, a liver biopsy was performed for histological assessment of NASH and fibrosis at baseline. For this purpose, about 100 mg liver tissue were collected from the left lateral lobe, fixed overnight in 4% paraformaldehyde, paraffin-embedded and sectioned (3 μm thickness). For histological assessment, sections were stained with hematoxylin, eosin or Sirius Red and followed by analysis with Visiomorph software (Visiopharm, Denmark). Histological scoring was performed by a pathologist blinded to the study. NAFLD activity score and fibrosis score were determined according to the clinical criteria outlined by Kleiner et al (Hepatology 2005, […], pp. 1313-1321). Animals were randomized into different treatment groups according to body weight and extent of fibrosis. Treatment period was eight weeks during which animals remained on the AMLN diet. Compounds were given by once-daily or twice-daily subcutaneous injection. Vehicle-treated animals on AMLN diet and non-treated animals on regular rodent chow were included as controls. Group sizes were between 8 and 14 animals. After treatment, terminal liver samples were collected and analysed as for the pre-biopsy. Dual-agonistic GLP1R/GCGR agonistic peptides were investigated in a murine model of NASH as described in the methods section. Treatment duration was eight weeks over which animals remained on the NASH-inducing AMLN diet. The GLP1R-specific agonist liraglutide (SEQ ID NO.: 4) was included as a reference compound. In the diet-induced murine NASH model, compounds were administered at the following doses (all via subcutaneous injections): SEQ ID NO.: 2 10 μg/kg b.i.d., SEQ ID NO.:3 30 μg/kg q.d. in comparison to liraglutide (SEQ ID NO.: 4) at 200 μg/kg q.d., SEQ ID NO.: 1 10 μg/kg b.i.d. or 30 μg/kg b.i.d. in comparison to liraglutide (SEQ ID NO.: 4) at 100 μg/kg b.i.d.

human GLP-1 receptor = human GLP-1 receptor (Homo sapiens, UniProt P43220); experiment: binding to human GLP-1 receptor
Chain of human GLP-1 receptor (P43220 24-463): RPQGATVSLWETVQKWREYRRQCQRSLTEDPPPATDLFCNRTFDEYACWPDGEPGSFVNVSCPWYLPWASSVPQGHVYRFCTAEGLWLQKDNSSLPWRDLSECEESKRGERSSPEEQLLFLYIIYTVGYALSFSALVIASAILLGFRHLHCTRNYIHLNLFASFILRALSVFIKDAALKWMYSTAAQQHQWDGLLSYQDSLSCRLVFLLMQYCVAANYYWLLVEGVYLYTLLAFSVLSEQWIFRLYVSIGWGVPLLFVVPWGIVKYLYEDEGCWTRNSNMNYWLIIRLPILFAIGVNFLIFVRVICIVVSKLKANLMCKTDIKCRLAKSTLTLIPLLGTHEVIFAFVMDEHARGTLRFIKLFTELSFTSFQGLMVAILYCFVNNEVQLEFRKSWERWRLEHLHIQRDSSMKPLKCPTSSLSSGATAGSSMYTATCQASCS

human glucagon receptor = human glucagon receptor (Homo sapiens, UniProt P47871); experiment: binding to human glucagon receptor
Chain of human glucagon receptor (P47871 26-477): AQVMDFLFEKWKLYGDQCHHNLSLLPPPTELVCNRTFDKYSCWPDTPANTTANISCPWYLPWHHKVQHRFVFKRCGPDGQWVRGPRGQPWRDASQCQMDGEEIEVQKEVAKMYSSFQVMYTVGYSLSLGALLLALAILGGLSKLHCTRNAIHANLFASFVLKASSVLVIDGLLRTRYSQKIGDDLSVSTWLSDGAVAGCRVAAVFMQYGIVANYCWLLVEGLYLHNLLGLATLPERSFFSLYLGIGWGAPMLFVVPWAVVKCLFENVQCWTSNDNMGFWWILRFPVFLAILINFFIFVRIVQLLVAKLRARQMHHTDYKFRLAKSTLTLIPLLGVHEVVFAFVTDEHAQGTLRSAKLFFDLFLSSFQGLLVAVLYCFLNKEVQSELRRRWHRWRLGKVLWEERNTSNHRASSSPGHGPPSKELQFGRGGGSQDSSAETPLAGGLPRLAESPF

[2] = 10 μg/kg b.i.d. s.c., eight weeks, vehicle increased by 0.2 points
[3] = 30 μg/kg twice daily s.c., eight weeks, AMLN diet mice (FIG. 3A study)
[4] = 10 μg/kg b.i.d. s.c., eight weeks, AMLN diet mice (FIG. 1A study)

Substance: H-dS-Q-G-T-F-T-S-D-L-S-K-Q-K(γE-Palm)-ESKAAQDFIEWLKAGGPSSGAPPPS-NH2 (HXQGTFTSDLSKQKESKAAQDFIEWLKAGGPSSGAPPPS; D-Ser1; K14 γE-palmitoyl; C-terminal amide; Exendin-4 analogue; MOD_RES (2)..(2) Xaa is D-Ser; MOD_RES (14)..(14) Lys is functionalized at the amino side chain group as Lys((S)-4-carboxy-4-hexadecanoylamino-butyryl); MOD_RES (39)..(39) amidated C-terminus) [SEQ ID NO.: 1, exendin-4 derivative of formula A, dual GLP-1/glucagon receptor agonist]
- decrease in mean NAS vs baseline [1, 2]: 2.0 points
- weight loss vs baseline ([1]; 10 μg/kg twice daily s.c., eight weeks, AMLN diet mice (FIG. 3A study), vehicle gained 0.5 grams): 3.0 grams
- weight loss vs baseline (% of body weight) ([1]; 10 μg/kg twice daily s.c., eight weeks, AMLN diet mice (FIG. 3A study), vehicle gained 1.3%): 8.5%
- decrease in mean NAS vs baseline ([1]; 30 μg/kg b.i.d. s.c., eight weeks, vehicle increased by 0.2 points, p<0.05 vs liraglutide): 1.9 points
- weight loss vs baseline [1, 3]: 3.9 grams
- weight loss vs baseline (% of body weight) [1, 3]: 11.4%
- change in fibrosis vs baseline ([1]; both doses, 10 and 30 μg/kg b.i.d. s.c., eight weeks (FIG. 3E)): trend to an improvement in fibrosis
- binding to human GLP-1 receptor (human GLP-1 receptor): good binding
- binding to human glucagon receptor (human glucagon receptor): good binding

Substance: H-dS-Q-G-T-F-T-S-D-L-S-K-Q-K(γE-Stea)-DEQLAKDFIEWLKAGGPSSGAPPPS-NH2 (H[dS]QGTFTSDLSKQK([γGlu-Stea])DEQLAKDFIEWLKAGGPSSGAPPPS-NH2) [SEQ ID NO.: 3, exendin-4 derivative of formula A, dual GLP-1/glucagon receptor agonist]
- weight loss vs baseline ([1]; 30 μg/kg q.d. s.c., eight weeks, AMLN diet mice (FIG. 2A study), vehicle gained 1.1 grams): 3.9 grams
- weight loss vs baseline (% of body weight) ([1]; 30 μg/kg q.d. s.c., eight weeks, AMLN diet mice (FIG. 2A study), vehicle gained 3.0%): 10.5%
- change in mean fibrosis score vs baseline ([1]; 30 μg/kg q.d. s.c., eight weeks, vehicle increased by 0.1 points): remained unchanged
- decrease in NAS vs baseline ([1]; 30 μg/kg q.d. s.c., eight weeks, vehicle increased by 0.8 points, p<0.001 vs vehicle, p<0.05 vs liraglutide): 1.6 points

Substance: H-dS-Q-G-T-F-T-S-D-L-S-K-Q-K(γE-Palm)-DSRRAQDFIEWLKNGGPSSGAPPPS-NH2 (HXQGTFTSDLSKQKDSRRAQDFIEWLKNGGPSSGAPPPS; D-Ser1; K14 γE-palmitoyl; C-terminal amide; Exendin-4 analogue; MOD_RES (2)..(2) Xaa is D-Ser; MOD_RES (14)..(14) Lys is functionalized at the amino side chain group as Lys((S)-4-carboxy-4-hexadecanoylamino-butyryl); MOD_RES (39)..(39) amidated C-terminus) [SEQ ID NO.: 2, exendin-4 derivative of formula A, dual GLP-1/glucagon receptor agonist]
- mean fibrosis stage after treatment ([1]; 10 μg/kg b.i.d. s.c., after eight weeks, baseline 1.2, vehicle group did not change): 0.6
- components of NAS (steatosis, inflammation and hepatocyte ballooning scores) ([1]; 10 μg/kg b.i.d. s.c., eight weeks (FIG. 1D)): reduction in score was seen for all three components of NAS
- weight loss vs vehicle [1, 4]: 4.9 grams
- weight loss vs vehicle, % of body weight at baseline [1, 4]: 13.5%
- weight loss vs baseline ([1]; 10 μg/kg b.i.d. s.c., eight weeks, AMLN diet mice (FIG. 1A study), vehicle gained 2.1 grams): 2.8 gram
- weight loss vs baseline (% of body weight) ([1]; 10 μg/kg b.i.d. s.c., eight weeks, AMLN diet mice (FIG. 1A study), vehicle gained 5.6%): 7.7%
- reduction in NAFLD activity score (NAS) vs baseline [1, 2]: 2.3 points
